Consider one compound from publication PMC4977651, “Molecular features of biguanides required for targeting of mitochondrial respiratory complex I and activation of AMP-kinase” (BMC Biology, 2016).

Values joined by “and” are separate entries in the source; they are usually repeats but may differ in a detail not shown here. Identical values can stand only once.

The test system of one assay is permeabilized MDBK cells. Description: ADP-stimulated rotenone-sensitive OCR in permeabilized MDBK cells. More on the design: rotenone sensitive OCR after ADP stimulation, average / rotenone sensitive OCR after ADP stimulation: unit not given here. Format: cell-based, Bos taurus. The settings on record: MDBK permeabilised cells; for rotenone sensitive OCR after ADP stimulation, % of control, average / rotenone sensitive OCR after ADP stimulation, average: average of replicates. An outline of the steps: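 Cells permeabilized with 3 nM PMP in mannitol/sucrose buffer with 10 mM glutamate/malate, pH 7.4, 37 °C; biguanide preloaded 30 min, then 4 mM ADP, 2 μM rotenone at end. Rotenone-sensitive OCR normalized to pre-biguanide rate; uptake rates expressed relative to time-matched controls.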

The test system of a further assay is mouse heart mitochondria. Description: ADP-stimulated rotenone-sensitive OCR in isolated mouse heart mitochondria. Type of assay: biochemical. Set-up: rotenone sensitive OCR after ADP stimulation, individual replicates / rotenone sensitive OCR after ADP stimulation, average / rotenone sensitive OCR after 15 mins, average: unit not given here. An outline of the steps: (§1)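 Isolated mitochondria were plated in a mannitol/sucrose buffer (pH 7.4) with glutamate/malate at 4 μg/well (mouse heart) or 16–20 μg/well (liver). Oxygen consumption was measured on a Seahorse XF96 at 32 °C. Biguanides at IC50/5 were allowed to accumulate for 15–20 min, then 4 mM ADP was added, with 2 μM rotenone added at the end.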

The subject of a further assay is rat liver mitochondria. Description: ADP-stimulated rotenone-sensitive OCR in isolated rat liver mitochondria. Type of assay: biochemical. More on the design: rotenone sensitive OCR after ADP stimulation, individual replicates / rotenone sensitive OCR after ADP stimulation, average: unit not given here. An outline of the steps:
as §1

Assay [1] has as its target bovine heart mitochondrial membranes (complex I) (Bos taurus, UniProt P03887+P03898+P17694+P42026). Description: NADH:O2 oxidoreduction by bovine heart mitochondrial membranes (complexes I-III-IV). Type of assay: biochemical. An outline of the steps: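 Spectrophotometric NADH oxidation (ε340–380 4.81 mM^−1 cm^−1) at 32 °C. Membranes at 5 μg mL^−1 in 10 mM Tris-HCl pH 7.4, 250 mM sucrose, 200 μM NADH, 0.15 mM cytochrome c; purified complex I at 0.5 μg mL^−1 in 20 mM Tris-HCl pH 7.2, 0.15 % asolectin/CHAPS, 200 μM each decylubiquinone and NADH. IC50 from dose-effect fit, Hill slope fixed at 1 for purified enzyme.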

[2] abbreviates: individual replicates, biguanide at IC50/5.

bovine heart mitochondrial membranes (complex I), sequence (P42026 38-216): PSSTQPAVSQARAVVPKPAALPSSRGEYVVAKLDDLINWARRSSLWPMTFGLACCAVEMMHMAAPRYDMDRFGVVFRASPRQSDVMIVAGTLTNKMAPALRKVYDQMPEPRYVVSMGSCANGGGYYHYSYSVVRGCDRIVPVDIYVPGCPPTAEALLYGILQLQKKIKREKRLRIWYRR
bovine heart mitochondrial membranes (complex I), sequence (P17694 34-463): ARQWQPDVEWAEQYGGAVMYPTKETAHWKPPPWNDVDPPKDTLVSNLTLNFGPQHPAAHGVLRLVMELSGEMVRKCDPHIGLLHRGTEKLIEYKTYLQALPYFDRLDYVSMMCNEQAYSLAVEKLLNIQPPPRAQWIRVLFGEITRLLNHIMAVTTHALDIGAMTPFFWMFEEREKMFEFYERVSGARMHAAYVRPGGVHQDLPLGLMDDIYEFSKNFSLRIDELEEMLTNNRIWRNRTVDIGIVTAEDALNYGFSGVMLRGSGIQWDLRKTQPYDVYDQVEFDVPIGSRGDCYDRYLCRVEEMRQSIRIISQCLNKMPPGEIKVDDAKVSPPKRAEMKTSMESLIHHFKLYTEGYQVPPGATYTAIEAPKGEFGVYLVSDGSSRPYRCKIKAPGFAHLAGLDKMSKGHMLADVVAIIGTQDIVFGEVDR
bovine heart mitochondrial membranes (complex I), sequence (P03887 whole entry): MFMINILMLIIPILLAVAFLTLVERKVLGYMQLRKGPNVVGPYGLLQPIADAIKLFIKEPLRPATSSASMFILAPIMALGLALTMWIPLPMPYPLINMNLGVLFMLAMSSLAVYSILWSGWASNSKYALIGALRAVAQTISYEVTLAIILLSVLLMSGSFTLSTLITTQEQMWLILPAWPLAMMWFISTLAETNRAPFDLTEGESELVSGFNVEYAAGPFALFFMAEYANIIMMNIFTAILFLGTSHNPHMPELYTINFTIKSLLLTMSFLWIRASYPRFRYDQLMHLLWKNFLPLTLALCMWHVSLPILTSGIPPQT
bovine heart mitochondrial membranes (complex I), sequence (P03898 whole entry): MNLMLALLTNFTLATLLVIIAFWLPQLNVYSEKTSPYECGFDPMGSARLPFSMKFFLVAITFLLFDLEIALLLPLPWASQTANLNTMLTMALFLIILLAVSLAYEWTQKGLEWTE

A word on the IC50: it is the midpoint of a concentration-inhibition curve. With `[H]/N=C(\N/C(=N/[H])Nc1ccc(Cl)cc1)NC(C)C` [proguanil, reference compound], the “rotenone sensitive OCR after ADP stimulation, % of control, average” value with permeabilized MDBK cells was 105.17 % of control; with permeabilized MDBK cells (biguanide at IC50/5), 105.17 % of control; in the assay with mouse heart mitochondria (average of replicates), 99.28 % of control; in the assay with rat liver mitochondria (average of replicates), 91.40 % of control. The “rotenone sensitive OCR after ADP stimulation, average” value in the assay with permeabilized MDBK cells amounted to 296.39; with permeabilized MDBK cells (biguanide at IC50/5) it was 296.39; in the assay with mouse heart mitochondria (average of replicates), 240.45; in the assay on rat liver mitochondria (average of replicates), 25.06. Besides, in the assay with permeabilized MDBK cells (setting [2]), the “rotenone sensitive OCR after ADP stimulation” value is 272.71 and 215.77 and 253.06 and 330.67 and 409.72. Also, the “rotenone sensitive OCR after ADP stimulation, % of control” value in the assay on permeabilized MDBK cells (setting [2]) was 96.77 % of control and 76.56 % of control and 89.79 % of control and 117.34 % of control and 145.38 % of control. The “rotenone sensitive OCR after ADP stimulation, % of control, individual replicates” value in the assay on mouse heart mitochondria (replicate 1-11) is 98.46 % of control and 125.69 % of control and 95.82 % of control and 99.56 % of control and 95.47 % of control and 84.72 % of control and 105.21 % of control and 89.32 % of control; in the assay on rat liver mitochondria (replicate 1-5) it was 82.64 % of control and 94.24 % of control and 97.33 % of control. The “rotenone sensitive OCR after ADP stimulation, individual replicates” value in the assay with mouse heart mitochondria (replicate 1-12) is 238.46 and 304.41 and 232.07 and 241.13 and 231.22 and 205.20 and 254.80 and 216.32; in the assay on rat liver mitochondria (replicate 1-5), 22.66 and 25.84 and 26.69. Besides, the remaining activity at 5 µM in assay [1] (bovine heart mitochondrial membranes, inhibitor 0.005 mM, read-out: average % (rate, % of no-inhibitor control)) is 76.5%. The remaining activity at 12.5 µM in assay [1] (bovine heart mitochondrial membranes, inhibitor 0.0125 mM, read-out: average % (rate, % of no-inhibitor control)) was found to be 56.2%. Also, the remaining activity at 25 µM in assay [1] (bovine heart mitochondrial membranes, inhibitor 0.025 mM, read-out: average % (rate, % of no-inhibitor control)) turned out to be 41.4%. The remaining activity at 50 µM in assay [1] (bovine heart mitochondrial membranes, inhibitor 0.05 mM, read-out: average % (rate, % of no-inhibitor control)) was found to be 24.9%. Further, the remaining activity at 100 µM in assay [1] (bovine heart mitochondrial membranes, inhibitor 0.10 mM, read-out: average % (rate, % of no-inhibitor control)) was found to be 7.77%. The remaining activity at 250 µM in assay [1] (bovine heart mitochondrial membranes, inhibitor 0.25 mM, read-out: average % (rate, % of no-inhibitor control)) was found to be 6.98%. Further, in assay [1] (bovine heart mitochondrial membranes, inhibitor 0.50 mM, read-out: average % (rate, % of no-inhibitor control)), the remaining activity at 500 µM amounted to 7.97%. Moreover, the “LogIC50 (best fit value)” value in assay [1] (log of concentration in mM, sample given as Bovine heart mitochondrial membranes, Prism variable slope fit, Bottom 0, Top 100) is -1.788. Moreover, in assay [1] (read-out: IC50 (best fit value), sample given as Bovine heart mitochondrial membranes, Prism log(inhibitor) vs. response variable slope fit (four parameters), Bottom 0, Top 100), the IC50 amounted to 16.3 µM. Also, the “HillSlope (best fit value)” value in assay [1] (sample given as Bovine heart mitochondrial membranes, Prism variable slope fit, Bottom 0, Top 100) is reported as -1.025.
